Patent US6525059B1, “Substituted pyrazoles as p38 kinase inhibitors” (G. D. Searle & Company, priority 1998, dated 2003)
Read-outs that look alike come from different tables or passages of the source.

Tests used:
[1] = target: T1, human p38 kinase alpha (Homo sapiens, UniProt Q16539); experiment: p38 kinase in vitro assay, phosphorylation of biotinylated PHAS-I with gamma 32P-ATP; type: biochemical; details: for inhibition at 10 µM / inhibition at 1 µM: read-out: P38 alpha kinase % inhib @ conc.
T1 construct: The coding region of the human p38a cDNA was obtained by PCR-amplification from RNA isolated from the human monocyte cell line THP.1; GST (N); made in house; host or cells: E. coli DH10B
T1 sequence (Q16539 whole entry): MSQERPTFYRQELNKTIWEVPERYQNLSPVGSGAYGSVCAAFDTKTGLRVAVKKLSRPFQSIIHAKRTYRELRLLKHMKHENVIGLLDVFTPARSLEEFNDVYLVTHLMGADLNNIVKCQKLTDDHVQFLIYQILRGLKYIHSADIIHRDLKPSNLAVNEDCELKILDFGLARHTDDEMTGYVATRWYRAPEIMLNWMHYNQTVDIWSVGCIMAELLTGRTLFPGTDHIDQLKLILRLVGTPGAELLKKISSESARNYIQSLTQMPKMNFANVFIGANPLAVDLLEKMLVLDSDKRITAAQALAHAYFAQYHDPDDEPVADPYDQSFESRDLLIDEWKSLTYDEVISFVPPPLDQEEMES
How it was run: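 MKK6-activated human p38α phosphorylates biotinylated PHAS-I with γ-32P-ATP in 25 mM HEPES pH 7.5, 10 mM Mg acetate, 50 μM unlabeled ATP, 1% DMSO, 30 °C for 1 h or overnight. Compounds at 100–0.001 μM (10-fold steps, triplicate); substrate captured on streptavidin filter plates and counted by scintillation.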

[2] = test system: TNF-α; experiment: LPS stimulation of TNF production by U937 cells; type: cell-based, human; details: for inhibition at 1 µM / IC50: Homo sapiens; for inhibition at 1 µM: U-937, @ 1.0 uM, read-out: U937 Cell % inhib @ conc.; for U937 Cell % inhib @ conc.: @ 1.0 uM
Experimental: Fifty million cells in 100 ml media were induced to terminal monocytic differentiation by 24 hour incubation with 20 ng/ml phorbol 12-myristate 13-acetate (Sigma). The cells were washed by centrifugation (200×g for 5 min) and resuspended in 100 ml fresh medium. After 24-48 hours, the cells were harvested, centrifuged, and resuspended in culture medium at 2 million cells/ml.
Compounds were prepared as 10 mM stock solutions in DMSO and diluted in culture medium to yield a final DMSO concentration of 0.1% in the cell assay. LPS (E coli, 100 ng/ml final concentration) was then added at a volume of 0.02 ml. After 4 hour incubation at 37° C., the amount of TNF-α released in the culture medium was quantitated by ELISA. Inhibitory potency is expressed as IC50 (μM).
In vitro whole cell assay for measuring the ability of the compounds to inhibit TNF production in human U937 cells stimulated with LPS are shown in the column identified as: […]

[3] = read-out: P38 alpha kinase IC50
[4] = U-937, TNF production, LPS-stimulated human U937 cells, read-out: U937 Cell IC50

SMILES | IC50 [1, 3] [nM] | inhibition at 1 µM [2] [%] | further results
Cc1ccc(S(=O)(=O)N[C@H](C)c2[nH]nc(-c3ccc(F)cc3)c2-c2ccncc2)cc1 [Example B-0399] | 140 | 39 | 
CCOC(=O)C(CC(C)C)NC(=O)NCc1[nH]nc(-c2ccc(F)cc2)c1-c1ccncc1 (stereo not drawn) [Example B-0189] |  | 9 | inhibition at 10 µM [1]: 42%
CC(C)OC(=O)NCc1[nH]nc(-c2ccc(F)cc2)c1-c1ccncc1 [Example B-0205] | 96 | 54 | 
O=C(NCc1[nH]nc(-c2ccc(F)cc2)c1-c1ccncc1)c1ccco1 [Example B-0209] | 290 | 8 | 
COc1cc(NC(=O)NCc2[nH]nc(-c3ccc(F)cc3)c2-c2ccncc2)cc(OC)c1OC [Example B-0191] |  | 29 | inhibition at 1 µM [1]: 40%
COc1ccc(C)cc1S(=O)(=O)N[C@H](C)c1[nH]nc(-c2ccc(F)cc2)c1-c1ccncc1 [Example B-0470] | 63 | 92 | 
CS(=O)(=O)NCc1[nH]nc(-c2ccc(F)cc2)c1-c1ccncc1 [Example B-0107] | 270 |  | IC50 [2, 4]: 5000 nM
O=C(NCc1[nH]nc(-c2ccc(F)cc2)c1-c1ccncc1)C1CCC1 [Example B-0066] |  | 28 | inhibition at 1 µM [1]: 94%
Cc1ccc(C(=O)N[C@H](C)c2[nH]nc(-c3ccc(F)cc3)c2-c2ccncc2)cc1 [Example B-0374] | 1380 |  | U937 Cell % inhib @ conc. [2]: 12.0% @ 1.0 uM
COc1ccc(Cl)cc1S(=O)(=O)N[C@H](C)c1[nH]nc(-c2ccc(F)cc2)c1-c1ccncc1 [Example B-0478] | 34 | 87 | 
CC(C)OC(=O)N[C@H](C)c1[nH]nc(-c2ccc(F)cc2)c1-c1ccncc1 [Example B-0429] | 270 | 45 | 
O=[N+]([O-])c1cc(S(=O)(=O)NCc2[nH]nc(-c3ccc(F)cc3)c2-c2ccncc2)ccc1Cl [Example B-0102] |  | 15 | inhibition at 1 µM [1]: 81%
COc1ccc(OC)c(S(=O)(=O)N[C@H](C)c2[nH]nc(-c3ccc(F)cc3)c2-c2ccncc2)c1 [Example B-0457] | 89 | 81 | 
C[C@@H](NS(=O)(=O)c1cc(Cl)c(Cl)s1)c1[nH]nc(-c2ccc(F)cc2)c1-c1ccncc1 [Example B-0452] | 700 | 75 | 
CC(C)S(=O)(=O)NCc1[nH]nc(-c2ccc(F)cc2)c1-c1ccncc1 [Example B-0106] |  |  | inhibition at 1 µM [1]: 62%; IC50 [2, 4]: 5000 nM
CCOC(=O)c1cccc(NC(=O)NCc2[nH]nc(-c3ccc(F)cc3)c2-c2ccncc2)c1 [Example B-0154] |  | 14 | inhibition at 10 µM [1]: 65%
O=C(NCCc1ccccc1)NCc1[nH]nc(-c2ccc(F)cc2)c1-c1ccncc1 [Example B-0157] |  | 9 | inhibition at 10 µM [1]: 48%
O=S(=O)(NCc1[nH]nc(-c2ccc(F)cc2)c1-c1ccncc1)c1ccc(S(=O)(=O)c2ccccc2)s1 [Example B-0263] | 620 | 64 | 
O=C(NCc1[nH]nc(-c2ccc(F)cc2)c1-c1ccncc1)Nc1ccc(C(F)(F)F)cc1 [Example B-0163] |  | 10 | inhibition at 10 µM [1]: 20%
C[C@@H](NC(=O)c1ccccc1F)c1[nH]nc(-c2ccc(F)cc2)c1-c1ccncc1 [Example B-0522] | 150 | 75 | 
O=C(NCc1[nH]nc(-c2ccc(F)cc2)c1-c1ccncc1)Nc1ccc(OC(F)(F)F)cc1 [Example B-0172] |  | 11 | inhibition at 10 µM [1]: 16%
CC(C)COC(=O)NCc1[nH]nc(-c2ccc(F)cc2)c1-c1ccncc1 [Example B-0009] | 40 |  | IC50 [2, 4]: 720 nM
NC(=O)NCc1[nH]nc(-c2ccc(F)cc2)c1-c1ccncc1 [Example B-0214] | 160 | 50 | 
COc1ccc(C)cc1S(=O)(=O)NCc1[nH]nc(-c2ccc(F)cc2)c1-c1ccncc1 [Example B-0246] | < 100 |  | IC50 [2, 4]: > 1000 nM
O=C(NCc1[nH]nc(-c2ccc(F)cc2)c1-c1ccncc1)c1ccc(Cl)cc1Cl [Example B-0291] | 1330 | 20 | 
C[C@@H](NC(=O)c1ccc(F)cc1C(F)(F)F)c1[nH]nc(-c2ccc(F)cc2)c1-c1ccncc1 [Example B-0511] | 7 | 90 | 
O=C(NCc1[nH]nc(-c2ccc(F)cc2)c1-c1ccncc1)c1cc(F)c(F)cc1F [Example B-0296] | 8030 | 36 | 

SMILES | IC50 [1, 3] [nM] | inhibition at 1 µM [2] [%] | further results
O=C(NCc1[nH]nc(-c2ccc(F)cc2)c1-c1ccncc1)c1ccc(Cl)nc1 [Example B-0052] |  | 15 | inhibition at 1 µM [1]: 92%
O=S(=O)(NCc1[nH]nc(-c2ccc(F)cc2)c1-c1ccncc1)c1ccc(-c2ccon2)s1 [Example B-0262] | 410 | 89 | 
O=C(NCc1[nH]nc(-c2ccc(F)cc2)c1-c1ccncc1)N[C@@H]1C[C@@H]1c1ccccc1 [Example B-0153] |  | 21 | inhibition at 1 µM [1]: 57%
CC(C)NC(=O)N[C@H](C)c1[nH]nc(-c2ccc(F)cc2)c1-c1ccncc1 [Example B-0401] | 460 | 52 | 
C[C@@H](NC(=O)C1CCCC1)c1[nH]nc(-c2ccc(F)cc2)c1-c1ccncc1 [Example B-0376] | 2990 | 12 | 
O=C(NCc1[nH]nc(-c2ccc(F)cc2)c1-c1ccncc1)c1ccc(F)c(C(F)(F)F)c1 [Example B-0287] | 4000 | 22 | 
CCCNC(=O)NCc1[nH]nc(-c2ccc(F)cc2)c1-c1ccncc1 [Example B-0213] | 310 | 39 | 
O=C(NCc1[nH]nc(-c2ccc(F)cc2)c1-c1ccncc1)c1ccc(F)cc1F [Example B-0299] | 870 | 54 | 
O=S(=O)(NCc1[nH]nc(-c2ccc(F)cc2)c1-c1ccncc1)c1ccc2ccccc2c1 [Example B-0110] |  | 13 | inhibition at 1 µM [1]: 66%
CNC(=O)N[C@H](C)c1[nH]nc(-c2ccc(F)cc2)c1-c1ccncc1 [Example B-0408] | 500 | 50 | 
CC(C)S(=O)(=O)N[C@H](C)c1[nH]nc(-c2ccc(F)cc2)c1-c1ccncc1 [Example B-0387] | 410 | 52 | 
CCCS(=O)(=O)NC(Cc1ccccc1)c1[nH]nc(-c2ccc(F)cc2)c1-c1ccncc1 (stereo not drawn) [Example B-0760] | 10 |  | U937 Cell % inhib @ conc. [2]: 13.0% @ 1.0 uM
C[C@@H](NC(=O)c1c(F)ccc(F)c1F)c1[nH]nc(-c2ccc(F)cc2)c1-c1ccncc1 [Example B-0503] | 160 | 73 | 
CN(C)CCCNc1[nH]nc(-c2ccc(F)cc2)c1-c1ccncc1 [Example A-287, N′-[5-(4-fluorophenyl)-4-(4-pyridinyl)-1H-pyrazol-3-yl]-N,N-dimethyl-1,3-propanediamine] |  |  | IC50 ([1]; p38α in vitro, PHAS-I assay procedure, read-out: p38^1 IC50): 41 nM; IC50 ([2]; U-937, LPS-stimulated U937 cells, read-out: U937 IC50): 270 nM
CCCC(CCC)C(=O)NCc1[nH]nc(-c2ccc(F)cc2)c1-c1ccncc1 [Example B-0057] |  | 29 | inhibition at 1 µM [1]: 96%
C[C@@H](NC(=O)c1ccno1)c1[nH]nc(-c2ccc(F)cc2)c1-c1ccncc1 [Example B-0364] | 1440 | 27 | 
O=C(Cc1cccc2ccccc12)NCc1[nH]nc(-c2ccc(F)cc2)c1-c1ccncc1 [Example B-0171] |  | 21 | inhibition at 10 µM [1]: 61%
CCCOC(=O)NCc1[nH]nc(-c2ccc(F)cc2)c1-c1ccncc1 [Example B-0203] | 160 | 65 | 
O=C(CCc1ccccc1)NCc1[nH]nc(-c2ccc(F)cc2)c1-c1ccncc1 [Example B-0076] |  | 21 | inhibition at 1 µM [1]: 58%
CCN(CC)C(=O)N[C@H](C)c1[nH]nc(-c2ccc(F)cc2)c1-c1ccncc1 [Example B-0420] |  | 49 | 
C[C@@H](NS(=O)(=O)c1cccc(Cl)c1Cl)c1[nH]nc(-c2ccc(F)cc2)c1-c1ccncc1 [Example B-0445] |  | 83 | 
C[C@@H](NS(=O)(=O)c1ccc2ccccc2c1)c1[nH]nc(-c2ccc(F)cc2)c1-c1ccncc1 [Example B-0440] |  | 63 | 
C[C@@H](NC(=O)c1ccc(F)cc1F)c1[nH]nc(-c2ccc(F)cc2)c1-c1ccncc1 [Example B-0524] |  | 77 | 
C[C@@H](NC(=O)c1cccc(C#N)c1)c1[nH]nc(-c2ccc(F)cc2)c1-c1ccncc1 [Example B-0499] |  | 37 | 
C[C@@H](NS(=O)(=O)c1ccc(Cl)cc1)c1[nH]nc(-c2ccc(F)cc2)c1-c1ccncc1 [Example B-0433] |  | 92 | 
C[C@@H](NC(=O)c1cccc(F)c1F)c1[nH]nc(-c2ccc(F)cc2)c1-c1ccncc1 [Example B-0518] |  | 64 | 
